Among the test systems are DLD-1 colon; DMS 114 small cell lung; DMS 273 small cell lung; HCT-15 colon; HOP-18 NSCLC; HT29 colon; LXFL 529 NSCLC; M19-MEL melanoma; NCI-H23 lung; NCI-H460 lung; SW-620 colon; TK-10 renal; UACC-257 melanoma; KM20L2 colon; XF 498 CNS.
Common to all, as to assay: growth of human tumour cells (NCI), 48 h

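These data come from cells grown in 96-well plates and exposed to compound for 48 hours at five concentrations. Definition used: TGI = concentration required for complete inhibition of growth.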

For `O=[N+]([O-])c1cccc(C2=NOC3C4CCC(C4)C23)c1` (stereo not drawn), the TGI in the assay with DLD-1 colon, in the assay on DMS 114 small cell lung, with DMS 273 small cell lung, in the assay on HCT-15 colon, with HOP-18 NSCLC and in the assay with HT29 colon was greater than 100 µM each time. Besides, the TGI with LXFL 529 NSCLC, with M19-MEL melanoma, in the assay with NCI-H23 lung, with NCI-H460 lung, in the assay on SW-620 colon and in the assay on TK-10 renal was greater than 100 µM each time. In addition, in the assay with UACC-257 melanoma, the TGI was greater than 100 µM.

For `CC1=C(C(=O)Nc2ccc([N+](=O)[O-])cc2)C(c2ccccc2F)C(C(=O)Nc2ccc([N+](=O)[O-])cc2)=C(C)N1`, the TGI in the assay on DLD-1 colon is greater than 100 µM; in the assay on DMS 114 small cell lung it was 87.8 µM; in the assay on HT29 colon it was 95.2 µM; in the assay with KM20L2 colon, 29.8 µM; with LXFL 529 NSCLC, 59.6 µM; in the assay with M19-MEL melanoma, 55.5 µM. Moreover, the TGI is 44.4 µM with NCI-H23 lung; 69.7 µM with NCI-H460 lung; greater than 100 µM in the assay with SW-620 colon; greater than 100 µM in the assay on TK-10 renal; 48.7 µM in the assay on UACC-257 melanoma; 6.94 µM in the assay with XF 498 CNS.

`COc1ccc(N2C(=O)CC(c3c[nH]c4ncccc34)C2=O)cc1` (stereo not drawn): the TGI is 59.3 µM in the assay on HCT-15 colon; 40.5 µM in the assay on HT29 colon; greater than 58.4 µM in the assay on NCI-H23 lung; greater than 100 µM in the assay on NCI-H460 lung; 40.7 µM in the assay on SW-620 colon; 19.5 µM in the assay with TK-10 renal. The compound also yielded a TGI with UACC-257 melanoma of 38.5 µM.

Take `OC(C/C=N/Nc1ccccc1)(C(F)(F)Cl)C(F)(F)Cl`: the TGI with HCT-15 colon, with HT29 colon, with NCI-H23 lung, with NCI-H460 lung, in the assay with SW-620 colon and with TK-10 renal was greater than 10 µM throughout. Further, the TGI in the assay with UACC-257 melanoma was greater than 10 µM.

In the case of `CC(C)(C)C1CCC2c3c([nH]c4ccccc34)C3C(=O)N(c4ccc5c(c4)C(=O)c4ccccc4C5=O)C(=O)C3C2C1` (stereo not drawn), the TGI in the assay with HCT-15 colon, with HT29 colon, in the assay with NCI-H23 lung, in the assay on NCI-H460 lung, in the assay with SW-620 colon and with TK-10 renal was greater than 100 µM in each case. In addition, the TGI in the assay on UACC-257 melanoma is greater than 100 µM.

As for `COP(=O)(OC)/C(=C\c1cn(C(c2ccccc2)(c2ccccc2)c2ccccc2)cn1)NC(C)=O`, the TGI with HCT-15 colon, in the assay with HT29 colon, in the assay with NCI-H23 lung, in the assay with NCI-H460 lung, in the assay on SW-620 colon and with TK-10 renal was greater than 100 µM throughout. Further, the TGI in the assay on UACC-257 melanoma is greater than 100 µM.

For the compound `Cc1cc2c(cc1Cl)SC(NNc1ccc([N+](=O)[O-])cc1)=NS2(=O)=O`, the TGI in the assay with HCT-15 colon, in the assay with HT29 colon, in the assay with NCI-H23 lung, in the assay with NCI-H460 lung, in the assay with SW-620 colon and in the assay with TK-10 renal was greater than 10 µM throughout. The same compound had a TGI with UACC-257 melanoma greater than 10 µM.

Turning to `C=CCn1c(-c2ccc(-c3cs/c(=N\N=O)n3CC=C)cc2)cs/c1=N\N=O`, the TGI in the assay on HCT-15 colon, in the assay on HT29 colon, in the assay with NCI-H23 lung, in the assay on NCI-H460 lung, in the assay with SW-620 colon and in the assay with TK-10 renal was greater than 100 µM each time. In the assay with UACC-257 melanoma, this compound showed a TGI greater than 100 µM.

Consider `O=C1NC2(CCN(CCCC3(c4ccc(F)cc4)OCCO3)CC2)Oc2ccccc21`, for which the TGI in the assay on HCT-15 colon, with HT29 colon, in the assay on NCI-H23 lung, in the assay on NCI-H460 lung, in the assay with SW-620 colon and with TK-10 renal was greater than 100 µM in each case. This compound also had a TGI in the assay on UACC-257 melanoma greater than 100 µM.

In the case of `N#Cc1nc(COCCOCc2ccc(F)cc2)oc1N`, the TGI in the assay with HCT-15 colon, in the assay with HT29 colon, in the assay on NCI-H23 lung, in the assay on NCI-H460 lung, in the assay on SW-620 colon and with TK-10 renal was greater than 100 µM in each case. This compound gave a TGI in the assay with UACC-257 melanoma greater than 100 µM.

As for `CCC(=O)N/N=C(\C=C\c1cccc(O)c1)c1sc(Nc2ccc(C)cc2[N+](=O)[O-])nc1C`, the TGI with DLD-1 colon was greater than 100 µM; in the assay with DMS 114 small cell lung, greater than 100 µM; in the assay on DMS 273 small cell lung, greater than 100 µM; in the assay on HCT-15 colon, greater than 100 µM; in the assay on HOP-18 NSCLC, greater than 100 µM; in the assay with HT29 colon, 40.6 µM. Besides, the TGI is greater than 100 µM in the assay on KM20L2 colon; greater than 100 µM with LXFL 529 NSCLC; greater than 100 µM in the assay on M19-MEL melanoma; 6.72 µM with NCI-H23 lung; greater than 100 µM with NCI-H460 lung; greater than 100 µM with SW-620 colon. The TGI in the assay on TK-10 renal and in the assay with UACC-257 melanoma was greater than 100 µM in each case.

Take `CCc1cc2c(oc3cc(C)ccc32)c(=O)n1C`: the TGI with HCT-15 colon, with HT29 colon, in the assay on NCI-H23 lung, in the assay with NCI-H460 lung, in the assay with SW-620 colon and in the assay with TK-10 renal was greater than 10 µM throughout. This compound gave a TGI in the assay with UACC-257 melanoma greater than 10 µM.

With `CN(C)CC1CN=C(NC(=O)Nc2ccccc2)O1` (stereo not drawn), the TGI in the assay with HCT-15 colon, in the assay on HT29 colon, with NCI-H23 lung, in the assay on NCI-H460 lung, in the assay with SW-620 colon and in the assay with TK-10 renal was greater than 100 µM each time. The TGI in the assay with UACC-257 melanoma is greater than 100 µM.

For `COc1ccc(CCNC(=O)[C@H]2CCCC[C@@H]2CCO)cc1OC`, the TGI in the assay with HCT-15 colon, in the assay on HT29 colon, with NCI-H23 lung, with NCI-H460 lung, in the assay on SW-620 colon and in the assay on TK-10 renal was greater than 100 µM throughout. In the assay on UACC-257 melanoma, this compound gave a TGI greater than 100 µM.

`O=C(CSC1=NNC2(C(=O)N1)c1ccccc1-c1ccccc12)NC(=S)Nc1ccccc1`: the TGI in the assay with HCT-15 colon, in the assay on HT29 colon, in the assay on NCI-H23 lung, in the assay with NCI-H460 lung, in the assay with SW-620 colon and in the assay with TK-10 renal was greater than 10 µM each time. In the assay with UACC-257 melanoma, the TGI is greater than 10 µM.

Source of the values: PubChem BioAssay (NCI).
